The results in this text go back to patent US11458153B2, “Drug delivery composition comprising a self-assembled gelator” (The Brigham and Women's Hospital, Inc., priority 2008, dated 2022).

Entries after “also recorded” stand apart in the source; their conditions may differ.

Data set [1] in a line: Gelation studies with Apn-based prodrug gelators in water and organic solvents. It counts as physicochemical. On the set-up: key to Gelation ability: G = gel; P = precipitate; S = soluble; I = insoluble. The conditions noted are these: for gelation in water (in words): water / aqueous solutions. From the text: Gelation Studies with Prodrug-Based Gelators. Gelation abilities of Apn based amphiphilic prodrugs have been investigated thoroughly in a wide range of solvents. For detailed gelation results, see Table 1, below). Typically, the required amount of gelator was placed in a glass vial and with an appropriate solvent. […] The resulting solution was slowly cooled to room temperature and gelation was visually observed. […] Despite of prolonged heating Apn-11-CH3 was not soluble in water. […] In addition, Apn-7-COOH is soluble in basic solutions (pH is more than 8).
All gels were opaque in nature and stable for several weeks.
Preparation of Gels. Typically, gelator (0.1-5 mg) and required solvent (0.1-1 mL) were placed into a 2 mL scintillation vial, which was then sealed with a screw cap. The vial was heated with shaking until the solid was completely dissolved.

Data set [2] concerns mesenchymal stem cells (MSCs). The data set is described as follows: MSC viability, trypan blue exclusion. It is filed as cell-based, human. Particulars: 250 μM, 48 hours incubation. On the procedure: Cytocompatibility. The cytocompatibility of prodrugs generated from small modification of known drugs was investigated. […] To test the cyto compatibility of prodrug-based amphiphiles and bolaamphiphiles, and their effect on cell characteristics such as viability, proliferation, adhesion and cell phenotype, a series of experiments was performed with mesenchymal stem cells (MSCs). To gain more insight into the effect of modification, unmodified drug Apn was used as a control. The viability of control cells and cells treated with Apn, Apn-7-COOH and Apn-8-Apn was examined with trypan blue assay. Use of Mesenchymal stem cells is appropriate given that these systems may be used for localized release likely into connective tissues.
Mesenchymal Stem Cell Culture. Primary human mesenchymal stem cells were maintained in expansion media that consisted of 15% Fetal Bovine Serum (selected for its ability to expand MSCs), 1% (v/v) L-Glutamine, 1% (v/v) Penn-Strep, and α-MEM. All experiments were performed using MSCs at passage number 4-6.
Viability, Adhesion and Proliferation Characteristics. The viability of the cells was examined using trypan blue exclusion. […] The media was then aspirated and the cells were detached with 200 μL of cell dissociated solution (similar quantities of floating cells were observed between the groups, typically 5-10 per well). 300 μL of media was added and the total 500 μL of the cell dispersion was collected in an eppendorf tubes. From this 10 μL of cell dispersion was diluted to 1:1 with 4% trypan blue solution and cells were counted in a hemocytometer to determine the number viable (non-blue) and nonviable (blue) cells. A control for this experiment included cells treated with only phosphate buffer saline (PBS) without an amphiphile. Cell adhesion was quantified by measuring the number of adherent cells on tissue culture surfaces in 96 well plates after incubating with amphiphiles for 12 hours. For proliferation studies, 5000 cells were added to each well of a 96 well plate in 200 μL of MSC cell expansion media, and appropriate amphiphiles were then added and incubated at 37° C. and 5% CO2. Proliferation was quantified by manually tabulating the number of cells within the flask at multiple time points (1, 2, 3, 4, 6 and 8 days) with light microscopy at 10×.

Data set [3] deals with mesenchymal stem cells (MSCs). The data set is described as follows: MSC adipogenic differentiation, Oil Red O staining. The conditions noted are these: 250 μM, 23 days of induction. It is filed as cell-based, human. How it is done: (§1) Unlike typical fibroblast cell lines used for toxicity screening, cultured mesenchymal stem cells are highly sensitive to the presence of soluble factors and can often loose their capacity for multi-lineage differentiation or differentiate into non-desired lineages depending on the culture conditions. To examine the impact of the acetaminophen amphiphilic prodrugs on multi-lineage differentiation of MSCs, cells were treated with adipogenic and osteogenic induction media in presence of amphiphiles followed by respective colorimetric histological staining.
Adipogenic Differentiation. MSCs were seeded in the wells of 24 well plates, and were culture in MSC expansion media until they reach 90% confluence (note: in control samples there was no amphiphile present, whereas in experimental samples 250 μM of Apn-based amphiphile was present). Adipogenic differentiation was induced by culturing the cells for 23 days in adipogenic induction media (from Lonza—MSCs Adipogenic Single Quote kit containing h-Insulin (recombinant), L-Glutamine, Dexamethasone, Indomethacin, IBMX (3-isobuty-1-methyl-xanthine), Pen/Strep) and adipogenic maintenance media (from Lonza—MSCs Adipogenic Single Quote kit containing h-Insulin (recombinant), L-Glutamine, Pen/Strep). […] Adipogenesis was evaluated by Oil Red O staining. Following aspiration of the media, cells were washed once with PBS, and fixed in PBS with 3.7% formaldehyde for 30 min at room temperature. Following fixation cells were rinsed with distilled water for a few minutes, and incubated with isopropanol containing an Oil Red O working solution (prepared by diluting 30 mL of 0.5% isopropanol/Oil Red O solution with 20 mL of distilled water). After 45 minutes culture well were rinsed twice with distilled water and 1 mL of hematoxylin was added to each well for 1 minute followed by aspiration and washing with distilled water. The wells were viewed using an inverted phase contrast microscope.

Data set [4] has as its system mesenchymal stem cells (MSCs). The data set is described as follows: MSC osteogenic differentiation, alkaline phosphatase staining. Particulars: 250 μM, 23 days. It counts as cell-based, human. On the procedure: as §1
Osteogenic Differentiation. MSCs were seeded in the wells of 24 well plates, and were culture in MSC expansion media until they reach 90% confluence (note: in control samples there was no amphiphile present, whereas in experimental samples 250 μM of Apn-based amphiphile was present). Osteogenic differentiation was induced by culturing the cells for 23 days in osteogenic induction media (from Lonza—MSCs Osteogenic Single Quote kit) containing dexamethasone, β-glycerophosphate, L-ascorbic acid-2-phosphate, and α-MEM. The media in both groups was changed every 3 days (note: each time while changing the media, 250 μM of Apn-based amphiphiles were added to maintain constant concentration). Osteogenesis was evaluated by cell membrane associated alkaline phosphatase activity. Alkaline phosphatase activity was examined after 23 days by carefully aspirating the media and washing the cells with PBS. The cells were fixed with 3.7% formaldehyde solution for 15 min at room temperature followed by rinsing with distilled water. 0.06% Red Violet LB salt solution in Tris HCl was added with distilled water containing DMF and Naphthol AS MX-PO4. The plates were incubated for 45 minutes at room temperature and then the wells were rinsed 3 times with distilled water and imaged under with inverted phase contrast microscope.

Data set [5] addresses T1, lipase (Lipolase 100L, Type EX) (Thermomyces lanuginosus, UniProt O59952).
T1 construct: purchased Novozymes through Brenntag North America Lipolase 100L, Type EX
T1 sequence (O59952 23-291): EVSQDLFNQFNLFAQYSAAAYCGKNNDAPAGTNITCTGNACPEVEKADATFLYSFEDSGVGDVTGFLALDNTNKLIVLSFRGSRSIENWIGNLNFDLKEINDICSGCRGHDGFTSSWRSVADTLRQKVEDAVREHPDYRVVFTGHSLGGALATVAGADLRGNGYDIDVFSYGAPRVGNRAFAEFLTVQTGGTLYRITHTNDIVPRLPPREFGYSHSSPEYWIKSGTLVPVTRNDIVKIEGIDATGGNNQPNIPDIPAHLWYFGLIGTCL
The data set is described as follows: Enzyme-triggered hydrogel degradation and drug release. It is filed as in vitro ADME. Particulars: curcumin-encapsulated hydrogel, lipase, 37° C., several days. How it is done:
Encapsulation and release of curcumin was previously studied by the Ultra-Violet absorbance spectroscopy (λmax at 424 nm). Absorbance spectrum of modified Apn-7-COOH was similar to that of Apn (FIG. 6B). In this instance, enzyme-triggered single and multiple drug delivery has been carried out using two sets of hydrogel samples, i.e., hydrogels of Apn-7-COOH and Apn-8-Apn with and without curcumin. In the first set, lipase (Lipolase 100L, Type EX, lipase units 100 KLU/g) was added to the preformed hydrogel of Apn-7-COOH (2 wt %) and kept it at 37° C. which is lower than gel melting temperature. It was anticipated that lipase (esterase) would hydrolyze the ester bond of prodrug-based gelator (Apn-7-COOH) to release acetaminophen and dicarboxylic acid as the hydrogel degrades. As expected, after 48 hours the gel completely degraded and became a clear solution.
To test this further, and examine multiple (two) drugs delivery (FIGS. 6A-6E), curcumin was encapsulated in the hydrogel of Apn-7-COOH (2 wt %) and to that lipase was added and kept it at 37° C. Absorbance spectra were recorded on aliquots which were collected (after the addition of enzyme to the hydrogel) at regular intervals (FIG. 6C). […] The concentration of the enzyme used in these in vitro experiments is higher than physiological concentration of esterases (for example, physiological concentration of cholesterol esterase is 7 U/ml).
Increasing either concentration of enzyme or incubation temperature to 45° C. doubles the drug release rate, which was correlating with previous findings.
To analyze the gel degradation mechanism, another prodrug Apn-5-ether-COOH was synthesized (FIG. 2), where hydrocarbon chain (which is bearing terminal carboxylic acid) was connected to the acetaminophen through an ether bond (C—O—C) to prevent the esterolytic cleavage by lipase.

A short description of data set [6]: Gelation ability of polyol amphiphiles in water and organic solvents. It counts as physicochemical. Also noted: key: G = stable gel at room temperature; P = precipitate; Sol = soluble. An excerpt:
Examples of suitable solvents include water, salt water (such as a NaCl solution), different […] such as TRISZMA buffers, and alkaline and acidic solutions. In addition to water-based solutions, the compounds can gel various aromatic and non-aromatic organic solvents, such as benzene, toluene, hexane, and acetonitrile. All the gels obtained in Table 7 were thermally reversible. Above their gelation temperature, the gels dissolved in solvent, but could be returned to their original gel state upon cooling.

Consider `CC(=O)Nc1ccc(O)cc1` [Apn, N-(4-hydroxyphenyl)acetamide, reference compound], for which, in data set [1], the “solubility in water (in words)” value is “water soluble”. Moreover, the viable cells in data set [2] came to 91%. The “adipogenic differentiation, Oil Red O (ORO) staining” value in data set [3] was “robust capacity; also recorded: positive staining”. In data set [4], the “osteogenic differentiation, alkaline phosphatase (ALP) staining” value was “robust capacity; also recorded: positive staining”.

As for `CC(=O)Nc1ccc(OCCCCCC(=O)O)cc1` [Apn-5-ether-COOH], the “gelation in water (in words)” value in data set [1] was “gelation behavior akin to Apn-7-COOH”. Besides, in data set [5], the “state of hydrogel after incubation with lipase” value is on record as “still intact”. The “curcumin release into the solution” value in data set [5] (absorption spectroscopy) is reported as “prevented curcumin release”.

For `CCCCCCCCCCCC(=O)Oc1ccc(NC(C)=O)cc1` [Apn-11-CH3], the Gelation ability result in data set [1] (solvent chloroform) is on record as “S”; in data set [1] (solvent ethanol), “G”; in data set [1] (solvent ethyl acetate), “P”; in data set [1] (solvent isopropanol), “G”; in data set [1] (solvent methanol) it was “S”; in data set [1] (solvent t-butanol) it was “G”. Moreover, in data set [1] (solvent water), the Gelation ability entry is “I”. The minimum gelation concentration in data set [1] (solvent ethanol) is on record as 1.5 wt/v %; in data set [1] (solvent isopropanol), 0.8 wt/v %; in data set [1] (solvent t-butanol) it was 0.6 wt/v %. Further, the “solubility in water (in words)” value in data set [1] is reported as “not soluble”. Besides, the “gelation in water (in words)” value in data set [1] was “did not gelate”.

Regarding `CC(=O)Nc1ccc(OC(=O)CCCCCCCCCCCCC(=O)O)cc1` [Apn-13-COOH], the Gelation ability entry is given as “S” in data set [1] (solvent chloroform); “S” in data set [1] (solvent ethanol); “I” in data set [1] (solvent ethyl acetate); “S” in data set [1] (solvent isopropanol); “S” in data set [1] (solvent methanol); “S” in data set [1] (solvent t-butanol). Besides, the Gelation ability entry in data set [1] (solvent water) is “G”. For the same compound, the minimum gelation concentration in data set [1] (solvent water) was found to be 0.6 wt/v %. Besides, in data set [1], the “solubility in water (in words)” value was “sparingly soluble”.

In the case of `CC(=O)Nc1ccc(OC(=O)CCCCCCCCCCCCC(=O)Oc2ccc(NC(C)=O)cc2)cc1` [Apn-14-Apn], the Gelation ability entry in data set [1] (solvent chloroform) is “S”; in data set [1] (solvent ethanol), “S”; in data set [1] (solvent ethyl acetate) it was “I”; in data set [1] (solvent isopropanol), “S”; in data set [1] (solvent methanol), “S”; in data set [1] (solvent t-butanol), “S”. Moreover, the Gelation ability entry in data set [1] (solvent water) was “G”. Besides, the minimum gelation concentration in data set [1] (solvent water) is recorded as 0.9 wt/v %. Also, in data set [1], the “solubility in water (in words)” value is “insoluble”.

For `CCCCCCCCCCCCCCCC(=O)NC(CO)(CO)CO` [polyol-16], the Gelation ability result in data set [6] (solvent 1,4-dioxane) is listed as “Sol”; in data set [6] (solvent CCl4), “G”; in data set [6] (solvent CH3CN), “G”; in data set [6] (solvent CHCl3), “Sol”; in data set [6] (solvent DMSO), “Sol”; in data set [6] (solvent NaCl (40 mM)), “G”. Moreover, the Gelation ability entry in data set [6] (solvent TRIS (50 mM)) was “G”; in data set [6] (solvent acetone) it was “Sol”; in data set [6] (solvent acidic (pH < 3)) it was “G”; in data set [6] (solvent basic (pH > 12)) it was “G”; in data set [6] (solvent benzene), “G”; in data set [6] (solvent cyclohexane), “G”. The Gelation ability result in data set [6] (solvent toluene) and in data set [6] (solvent water) was “G” each time.
